From ChEMBL document CHEMBL5226289, “Discovery of natural anti-inflammatory alkaloids: Potential leads for the drug discovery for the treatment of inflammation” (Eur J Med Chem, 2021) come the findings set out here.

One may read the IC50 as the concentration that inhibits the measured activity by half. What is called inhibition in vivo is the drop in the measured response relative to a control, in per cent. A word on the inhibition: it is the drop in the measured response relative to a control, in per cent.

The test system of test [1] is Mus musculus. Description: Antiinflammatory activity in croton oil-induced Swiss mouse model of ear edema assessed as reduction in MPO activity administered via surface of left ear measured after 6 hrs relative to control. It counts as functional. The arrangement: scale not given: the % may be the effect or the level left. Conditions: route au.
In test [2] the test system is Mus musculus. Description: Antiinflammatory activity in Swiss mouse assessed as reduction in croton oil-induced ear edema administered via surface of left ear measured after 6 hrs relative to control. Format: functional. On the set-up: scale not given: the % may be the effect or the level left. Conditions: route au.
Test [3] deals with T1, Prostaglandin G/H synthase 2 (Homo sapiens, UniProt P35354).
T1 sequence (P35354 whole entry): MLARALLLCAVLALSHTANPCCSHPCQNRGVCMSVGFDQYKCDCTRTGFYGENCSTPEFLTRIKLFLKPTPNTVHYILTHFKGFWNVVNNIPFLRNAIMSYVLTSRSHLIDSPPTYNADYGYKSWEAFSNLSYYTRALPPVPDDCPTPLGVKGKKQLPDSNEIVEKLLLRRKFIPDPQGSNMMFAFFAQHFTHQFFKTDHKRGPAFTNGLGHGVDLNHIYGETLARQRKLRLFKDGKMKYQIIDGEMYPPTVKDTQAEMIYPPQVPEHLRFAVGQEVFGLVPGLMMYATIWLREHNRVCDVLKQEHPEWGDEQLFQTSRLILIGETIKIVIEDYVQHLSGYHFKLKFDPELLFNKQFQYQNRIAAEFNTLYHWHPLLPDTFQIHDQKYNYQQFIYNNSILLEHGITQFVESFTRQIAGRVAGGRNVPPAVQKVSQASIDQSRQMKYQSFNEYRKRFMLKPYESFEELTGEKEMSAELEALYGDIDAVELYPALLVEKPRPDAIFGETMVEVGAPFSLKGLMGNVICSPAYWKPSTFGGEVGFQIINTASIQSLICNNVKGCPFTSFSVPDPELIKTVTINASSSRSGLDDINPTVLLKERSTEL
As to the kind of experiment: Inhibition of human recombinant COX-2 expressed in baculovirus infected Sf21 cells using arachidonic acid as substrate by spectrophotometric analysis.

Test [4] can be described thus: Inhibition of goat 5-LOX by spectrophotometric analysis. The arrangement: species or system Capra hircus.
In test [5] the test system is HT-1080. As to the kind of experiment: Antiinflammatory activity in human HT-1080 cells assessed as inhibition of IL-6 production. It counts as functional.
The subject of test [6] is HT-1080. As to the kind of experiment: Antiinflammatory activity in human HT-1080 cells assessed as inhibition of TNF-alpha production. Format: functional.
Test [7] concerns Rattus norvegicus. Description: Antiinflammatory activity in Wistar albino rat assessed as inhibition of CFA-induced paw edema at 10 mg/kg, po preadministered for 24 hrs followed by CFA administration and measured after 16 days. Format: functional. Conditions: 408 h, time 17 day.
For test [8], the system named is RAW264.7. As to the kind of experiment: Inhibition of NO production in LPS-stimulated mouse RAW264.7 cells preincubated with compound for 3 hrs followed by LPS stimulation and measured after 20 hrs by Griess reagent-based assay. It counts as functional, cell-based. (In general: Griess reagent forms a coloured azo dye with nitrite.)
The test system of test [9] is Rattus norvegicus. As to the kind of experiment: Antiinflammatory activity in Wistar albino rat assessed as inhibition of carrageenan-induced paw edema at 20 mg/kg, po preadministered for 1 hrs followed by carrageenan administration and measured upto 10 hrs by Plethysmometer. Format: functional. Particulars: time <= 11 hrs. Background: The carrageenan paw model is a standard test of acute inflammation.

The test system of test [10] is RAW264.7. Description: Inhibition of NO production in LPS-stimulated mouse RAW264.7 cells preincubated with compound for 4 hrs followed by LPS stimulation and measured after 24 hrs by Griess reagent-based assay. It counts as functional, cell-based.
Test [11] deals with THP-1. As to the kind of experiment: Antiinflammatory activity in human THP-1 cells assessed as inhibition of TNF-alpha production. Format: functional.
Test [12] concerns THP-1. Description: Antiinflammatory activity in human THP-1 cells assessed as inhibition of IL-6 production. It counts as functional.
A short description of test [13]: Inhibition of TNF-alpha production in LPS-induced human U-937 cells preincubated with compound for 30 mins followed by LPS induction and measured after 4 hrs. It counts as functional, cell-based.
Test [14] has as its system RAW264.7. As to the kind of experiment: Inhibition of NO production in LPS-stimulated mouse RAW264.7 cells at 100 uM incubated for 18 hrs by Griess reagent-based assay. It counts as functional.
In test [15] the target is Nuclear factor NF-kappa-B complex (Homo sapiens) (UniProt Q00653+P19838+Q04206). Description: Inhibition of TNF-alpha induced NFkappaB activation in HEK293 cells at 100 uM pretreated for 15 mins followed by stimulation with human recombinant TNFalpha and measured after 6 hrs by luminescence based assay relative to control. It counts as cell-based. Particulars: time 375.0 min.

≈ marks a conversion by molar mass, not a printed value.

Chain of Nuclear factor NF-kappa-B complex (Homo sapiens) (P19838 whole entry, looked up): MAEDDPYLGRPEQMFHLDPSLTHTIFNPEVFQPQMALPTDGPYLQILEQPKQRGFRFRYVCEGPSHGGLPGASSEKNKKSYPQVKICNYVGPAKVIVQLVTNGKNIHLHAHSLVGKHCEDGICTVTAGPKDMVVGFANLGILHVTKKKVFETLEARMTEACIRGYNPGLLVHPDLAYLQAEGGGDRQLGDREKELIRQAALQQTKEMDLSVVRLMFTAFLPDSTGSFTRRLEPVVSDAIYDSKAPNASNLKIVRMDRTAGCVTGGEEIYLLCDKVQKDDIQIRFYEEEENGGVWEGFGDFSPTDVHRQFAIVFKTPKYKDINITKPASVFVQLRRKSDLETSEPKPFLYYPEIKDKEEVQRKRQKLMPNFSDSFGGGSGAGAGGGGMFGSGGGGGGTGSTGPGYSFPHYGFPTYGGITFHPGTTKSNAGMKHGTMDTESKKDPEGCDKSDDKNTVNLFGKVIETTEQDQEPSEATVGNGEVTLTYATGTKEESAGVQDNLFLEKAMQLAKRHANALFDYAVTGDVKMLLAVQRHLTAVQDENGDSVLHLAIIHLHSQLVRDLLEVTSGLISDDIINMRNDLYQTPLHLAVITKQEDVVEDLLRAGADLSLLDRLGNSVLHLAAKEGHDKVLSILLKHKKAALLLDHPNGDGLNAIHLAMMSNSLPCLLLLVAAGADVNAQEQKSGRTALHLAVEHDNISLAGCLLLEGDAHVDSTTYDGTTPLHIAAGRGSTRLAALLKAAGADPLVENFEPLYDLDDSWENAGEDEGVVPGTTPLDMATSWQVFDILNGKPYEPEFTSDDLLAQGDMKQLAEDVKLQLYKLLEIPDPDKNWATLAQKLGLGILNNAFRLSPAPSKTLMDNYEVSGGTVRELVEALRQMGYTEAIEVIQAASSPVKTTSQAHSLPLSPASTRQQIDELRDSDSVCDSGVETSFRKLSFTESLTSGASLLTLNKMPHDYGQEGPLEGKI
Chain of Nuclear factor NF-kappa-B complex (Homo sapiens) (Q00653 whole entry, looked up): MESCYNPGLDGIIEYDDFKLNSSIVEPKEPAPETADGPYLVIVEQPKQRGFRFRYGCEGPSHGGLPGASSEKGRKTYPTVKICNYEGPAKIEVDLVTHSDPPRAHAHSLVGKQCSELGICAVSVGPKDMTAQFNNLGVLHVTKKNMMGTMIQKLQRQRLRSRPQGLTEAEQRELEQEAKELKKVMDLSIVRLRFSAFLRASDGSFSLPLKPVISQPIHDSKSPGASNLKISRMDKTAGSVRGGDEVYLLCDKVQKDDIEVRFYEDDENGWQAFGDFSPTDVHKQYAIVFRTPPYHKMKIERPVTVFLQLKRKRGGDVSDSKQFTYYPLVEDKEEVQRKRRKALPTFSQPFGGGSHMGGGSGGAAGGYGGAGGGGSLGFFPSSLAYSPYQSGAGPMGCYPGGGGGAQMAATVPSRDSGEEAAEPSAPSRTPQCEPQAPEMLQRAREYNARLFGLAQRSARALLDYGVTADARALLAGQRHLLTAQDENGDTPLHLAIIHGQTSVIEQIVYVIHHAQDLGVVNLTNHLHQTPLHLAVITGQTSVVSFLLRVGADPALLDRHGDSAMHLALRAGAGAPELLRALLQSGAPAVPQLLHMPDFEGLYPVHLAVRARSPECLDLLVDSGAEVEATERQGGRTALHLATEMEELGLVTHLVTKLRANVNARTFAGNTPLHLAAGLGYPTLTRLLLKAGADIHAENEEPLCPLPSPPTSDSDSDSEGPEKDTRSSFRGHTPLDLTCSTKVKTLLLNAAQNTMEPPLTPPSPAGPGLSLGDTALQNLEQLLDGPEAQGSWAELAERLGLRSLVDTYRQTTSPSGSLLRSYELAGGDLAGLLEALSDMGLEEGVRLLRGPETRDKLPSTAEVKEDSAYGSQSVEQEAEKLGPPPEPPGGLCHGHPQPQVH
Chain of Nuclear factor NF-kappa-B complex (Homo sapiens) (Q04206 whole entry, looked up): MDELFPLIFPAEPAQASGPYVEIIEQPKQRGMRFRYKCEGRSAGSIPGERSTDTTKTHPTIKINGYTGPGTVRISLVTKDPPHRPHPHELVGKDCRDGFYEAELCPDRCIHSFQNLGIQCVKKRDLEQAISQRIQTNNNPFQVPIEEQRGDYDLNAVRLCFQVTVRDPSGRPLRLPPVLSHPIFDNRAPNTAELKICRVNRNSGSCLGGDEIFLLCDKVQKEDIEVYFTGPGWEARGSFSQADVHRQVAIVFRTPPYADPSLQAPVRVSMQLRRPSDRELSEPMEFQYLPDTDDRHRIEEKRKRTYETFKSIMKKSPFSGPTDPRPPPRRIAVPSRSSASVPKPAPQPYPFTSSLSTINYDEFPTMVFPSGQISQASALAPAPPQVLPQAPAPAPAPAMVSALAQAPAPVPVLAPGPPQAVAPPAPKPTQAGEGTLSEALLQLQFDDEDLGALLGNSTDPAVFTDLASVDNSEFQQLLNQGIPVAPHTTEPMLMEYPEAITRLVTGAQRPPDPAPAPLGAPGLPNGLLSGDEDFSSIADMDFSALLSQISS

As to `CN1C[C@H](O)C[C@H]1C(=O)O`, the Activity with Mus musculus [1] came to 59.7%; in the test with Mus musculus [2], 26.8%.

In the case of `CC[C@H](CCCC[C@@H]1/C=C\CN/C=C\C1)C[C@@H]1CCC(=O)ON1`, the IC50 in [3] was 2500 µM; in test [4], 900 µg/mL (≈ 2810 µM).

For the compound `Cc1cc(=O)c2c(O)c([C@H]3CCN(C)C[C@H]3O)c(O)cc2o1`, the results for the “inhibition (INH)” value in the test with HT-1080 [5] and with HT-1080 [6] were 83% and 47%, respectively.

On to `O=c1c2ccccc2nc2n1CCC2O` (stereo not given), for which the inhibition in vivo at 10 mg/kg in the test on Rattus norvegicus [7] is 63.9%.

Consider `C=C1C=C2C=C[C@H](OC)C[C@@]23c2cc4c(cc2[C@@H](O)CN13)OCO4`, for which the IC50 in the test on RAW264.7 [8] is 3.4 µg/mL (≈ 10.4 µM).

With `OC1CCN2Cc3ccccc3N=C12` (stereo not given), the inhibition in vivo at 20 mg/kg with Rattus norvegicus [9] is 59.5%.

On to `COc1cc(/C=C/CO)ccc1O[C@H]1CCCNC1=O`, for which the IC50 with RAW264.7 [10] is 18.1 µM.

With `CC(=O)O[C@H]1CN(C)CC[C@H]1c1c(O)cc(O)c2c(=O)cc(C)oc12`, the entries for the “inhibition (INH)” value with THP-1 [11] and in the test with THP-1 [12] were 81.1% and 20.5%, respectively.

For the compound `CCCCCCCCCC(=O)C/C(=C\c1cc(CCC)ncc1C(=O)OC)C(C)=O`, the IC50 in test [13] was 1.52 µM.

`COc1cc2c(cc1O)-c1cc3ccc(OC)c(OC)c3c[n+]1CC2` [COLUMBAMINE] displayed an inhibition at 100 µM in the test with RAW264.7 [14] of 88.1%. Besides, in test [15], the inhibition worked out at 63.2%.
